The values that follow come from US20250127700A1, “METHODS OF TREATING HYPERPIGMENTATION DISORDERS” (DermBiont, Inc., priority 2016, published 2025).

In one series the test system is C47 BI/6 mice. Kind of series: Lightening of regrowing hair pigmentation in depilated mice, topical application. The conditions noted are these: 4% HQ; for Average gray value within the hair shafts, awl hairs / Average gray value within the hair shafts, zig-zag hairs: topical daily for 19 days after depilation, scale 0 (white) to 255 (black); for Average gray value within the hair shafts, awl hairs: 100 μm (0.0057%) Bis or ruboxistaurin in DMSO:propylene glycol, control value 181; for Maximum degree of hair lightening, zig-zag hairs below versus above the median gray value: zig-zag (small) hairs, FIG. 3, 0.0057% ruboxistaurin; for Color of zig-zag hairs compared to vehicle control (micrograph): FIG. 1, 100 μm Bis or ruboxistaurin; for Average gray value within the hair shafts, zig-zag hairs: 100 μm (0.0057%) Bis or ruboxistaurin, control 159. Type of series: in vivo. An excerpt: Briefly, […] mice aged 8-9 weeks (3 per group) were depilated to remove back hairs. These mice have black hair but no melanin pigmentation in the skin. Melanocytes in the hair follicle are responsible for the coat color. […] All compounds and vehicle were applied daily to the depilated areas for 19 days after depilation, i.e. throughout the period during which the new hair shafts are produced following depilation. Representative hairs of each type: guard, awl (large follicles deep in the dermis or subcutaneous follicle), auchene, and zig-zag (smaller follicles set in the more superficial dermis and the most numerous type of coat hairs), were randomly plucked (50/mouse) and photographed under a dissecting microscope. For separate analysis, 20 dark and light hairs from each mouse were subjected to computer assisted analysis of “gray value” for the pixels comprising the hair shaft.
Average gray value within the hair shafts were determined using ImageJ (NIH) software. The gray value is the sum of the gray values of all the pixels in the hair shaft divided by the number of pixels; and values range from 0 (white, no pigment) to 255 (black).
To determine the maximum degree of hair lightening (attributable to maximal drug exposure), an additional comparison was made between zig-zag hairs in each group that fell below versus above the median gray value.

A further series is described as follows: Solubility statement. Type of series: physicochemical.
For a further series, the target named is PKC isoform γ (Homo sapiens, UniProt P05129). Particulars: Jirousek et al. J Med Chem 1996; cited from earlier work.
For a further series, the target named is PKC isoform η (Homo sapiens, UniProt P24723). The conditions noted are these: Jirousek et al. J Med Chem 1996; cited from earlier work.
Chain of PKC isoform η (P24723 whole entry, canonical isoform): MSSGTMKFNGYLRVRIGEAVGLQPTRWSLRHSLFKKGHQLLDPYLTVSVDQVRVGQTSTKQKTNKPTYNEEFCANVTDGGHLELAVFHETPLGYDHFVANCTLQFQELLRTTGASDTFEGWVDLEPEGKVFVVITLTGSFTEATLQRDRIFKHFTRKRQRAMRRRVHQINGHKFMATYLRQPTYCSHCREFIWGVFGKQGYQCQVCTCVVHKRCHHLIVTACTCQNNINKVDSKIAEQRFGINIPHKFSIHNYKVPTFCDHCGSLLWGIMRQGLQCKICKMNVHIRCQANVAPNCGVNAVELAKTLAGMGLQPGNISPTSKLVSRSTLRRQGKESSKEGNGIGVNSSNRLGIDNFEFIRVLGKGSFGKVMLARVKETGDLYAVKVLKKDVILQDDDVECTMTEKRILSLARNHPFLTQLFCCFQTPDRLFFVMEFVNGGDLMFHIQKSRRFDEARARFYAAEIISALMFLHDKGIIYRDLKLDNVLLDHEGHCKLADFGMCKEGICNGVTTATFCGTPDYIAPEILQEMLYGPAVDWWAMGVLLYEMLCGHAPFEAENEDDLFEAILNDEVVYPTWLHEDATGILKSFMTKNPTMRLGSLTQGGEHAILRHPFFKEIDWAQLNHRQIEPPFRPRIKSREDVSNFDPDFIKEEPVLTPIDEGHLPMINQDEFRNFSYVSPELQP

Entries after “also recorded” stand apart in the source; their conditions may differ.

With `Oc1ccc(O)cc1` [HQ, hydroquinone], in the series with C47 BI/6 mice, the “Average gray value within the hair shafts, awl hairs” value is listed as 168; the “Maximum degree of hair lightening, zig-zag hairs below versus above the median gray value” was “minimally lighter than control hairs”; the “Color of zig-zag hairs compared to vehicle control (micrograph)” value is given as “minimal color difference”; the “Average gray value within the hair shafts, zig-zag hairs” value is on record as 156.

As a reminder, the IC50 is the concentration that gives 50% inhibition. Take `CN(C)CC1CCn2cc(c3ccccc32)C2=C(C(=O)NC2=O)c2cn(c3ccccc23)CCO1` (centres unmarked) [ruboxistaurin, 9-[(dimethylamino)methyl]-6,7,10,11-tetrahydro-9H,18H-5,21:12,17-di(metheno)dibenzo[e,k]pyrrolo[3,4-h][1,2,13]oxadiazacyclohexadecine-18,20-dione]: the Solubility entry in the series “Solubility statement” was “poorly soluble”. Further, at PKC isoform γ, the IC50 is 300 nM. In the series on C47 BI/6 mice, the “Average gray value within the hair shafts, awl hairs” value is reported as 155; the “Maximum degree of hair lightening, zig-zag hairs below versus above the median gray value” was “lighter than both control and 4% HQ hairs”; the “Color of zig-zag hairs compared to vehicle control (micrograph)” value is “significantly lighter; also recorded: lightest”; the “Average gray value within the hair shafts, zig-zag hairs” value was determined as 134. For the same compound, the IC50 on PKC isoform η was 52 nM.
